Laboratory results: PMC6364417, “Kinase inhibitor library screening identifies synergistic drug combinations effective in sensitive and resistant melanoma cells” (Journal of Experimental & Clinical Cancer Research : CR, 2019)

How the values were obtained:
Test in all cases: Kinase inhibitor library screening, PrestoBlue cell viability, 1 or 10 μM, 72 h
[1] = test system: 501Mel cells (parental); settings: for viability at 1 µM / viability at 10 µM: Homo sapiens; for viability at 1 µM: read-out: cell viability, 501Mel Parental, 1μΜ; for viability at 10 µM: read-out: cell viability, 501Mel Parental, 10μΜ
Summary of the method: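 Normalised to untreated controls, viability percentages came from PrestoBlue measured on a microplate reader following 72 h incubation with drug. Each line was assayed at least twice.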

[2] = test system: 501Mel-GP cells (Dabrafenib-resistant); settings: for viability at 1 µM / viability at 10 µM: Homo sapiens; for viability at 1 µM: read-out: cell viability, 501Mel GP, 1μΜ; for viability at 10 µM: read-out: cell viability, 501Mel GP, 10μΜ
[3] = test system: 501Mel-XP cells (Vemurafenib-resistant); settings: for viability at 1 µM / viability at 10 µM: Homo sapiens; for viability at 1 µM: read-out: cell viability, 501Mel XP, 1μΜ; for viability at 10 µM: read-out: cell viability, 501Mel XP, 10μΜ
[4] = test system: A375 cells (parental); settings: for viability at 1 µM / viability at 10 µM: Homo sapiens, A-375, 72 h; for viability at 1 µM: read-out: cell viability, A375 Parental, 1μΜ; for viability at 10 µM: read-out: cell viability, A375 Parental, 10μΜ; for cell viability (kinase inhibitor library screening): in %
[5] = test system: A375-GP cells (Dabrafenib-resistant); settings: for viability at 1 µM / viability at 10 µM: Homo sapiens, A-375, 72 h; for viability at 1 µM: read-out: cell viability, A375 GP, 1μΜ; for viability at 10 µM: read-out: cell viability, A375 GP, 10μΜ; for cell viability (kinase inhibitor library screening): in %
[6] = test system: A375-XP cells (Vemurafenib-resistant); settings: for viability at 1 µM / viability at 10 µM: Homo sapiens, A-375, 72 h; for viability at 1 µM: read-out: cell viability, A375 XP, 1μΜ; for viability at 10 µM: read-out: cell viability, A375 XP, 10μΜ; for cell viability (kinase inhibitor library screening): in %
[7] = test system: IGR37 cells (parental); settings: for viability at 1 µM / viability at 10 µM: Homo sapiens, IGR-37, 72 h; for viability at 1 µM: read-out: cell viability, IGR37 Parental, 1μΜ; for viability at 10 µM: read-out: cell viability, IGR37 Parental, 10μΜ
[8] = test system: IGR37-GP cells (Dabrafenib-resistant); settings: for viability at 1 µM / viability at 10 µM: Homo sapiens, IGR-37, 72 h; for viability at 1 µM: read-out: cell viability, IGR37 GP, 1μΜ; for viability at 10 µM: read-out: cell viability, IGR37 GP, 10μΜ
[9] = test system: IGR37-XP cells (Vemurafenib-resistant); settings: for viability at 1 µM / viability at 10 µM: Homo sapiens, IGR-37, 72 h; for viability at 1 µM: read-out: cell viability, IGR37 XP, 1μΜ; for viability at 10 µM: read-out: cell viability, IGR37 XP, 10μΜ

For N#CC[C@H](C1CCCC1)n1cc(-c2ncnc3[nH]ccc23)cn1 [Ruxolitinib (INCB018424)], the viability at 1 µM ([1]; 72 h) was 95.6%, the viability at 10 µM ([1]; 72 h) was 96.5% and the viability at 1 µM ([2]; 72 h) was 103%. It also gave a viability at 10 µM ([2]; 72 h) of 87.9%, a viability at 1 µM ([3]; 72 h) of 93.9% and a viability at 10 µM ([3]; 72 h) of 86.6%. It also gave a viability at 1 µM [4] of 102%, a viability at 10 µM [4] of 92.9% and a viability at 1 µM [5] of 95.8%. It also gave a viability at 10 µM [5] of 88.9%, a viability at 1 µM [6] of 102% and a viability at 10 µM [6] of 106%. For the same compound, the viability at 1 µM [7] was 97%, the viability at 10 µM [7] was 96.3% and the viability at 1 µM [8] was 93.2%. It also gave a viability at 10 µM [8] of 88.6%, a viability at 1 µM [9] of 103% and a viability at 10 µM [9] of 76.6%.
In the case of CN(C)CCOc1ccc(-c2nc(-c3ccncc3)c(-c3ccc4c(c3)CC/C4=N\O)[nH]2)cc1 [SB590885], the “cell viability (kinase inhibitor library screening)” value ([1]; 501Mel Parental, 1μΜ, in %) is reported as 74.7, the “cell viability (kinase inhibitor library screening)” value ([1]; 501Mel Parental, 10μΜ, in %) is reported as 0.649 and the “cell viability (kinase inhibitor library screening)” value ([2]; 501Mel GP, 1μΜ, in %) is reported as 110.5. The “cell viability (kinase inhibitor library screening)” value ([2]; 501Mel GP, 10μΜ, in %) was 0.56, the “cell viability (kinase inhibitor library screening)” value ([3]; 501Mel XP, 1μΜ, in %) was 121.3 and the “cell viability (kinase inhibitor library screening)” value ([3]; 501Mel XP, 10μΜ, in %) was 0.7. For the same compound, the “cell viability (kinase inhibitor library screening)” value ([4]; A375 Parental, 1μΜ) was 38.0, the “cell viability (kinase inhibitor library screening)” value ([4]; A375 Parental, 10μΜ) was 33.1 and the “cell viability (kinase inhibitor library screening)” value ([5]; A375 GP, 1μΜ) was 73.8. The “cell viability (kinase inhibitor library screening)” value ([5]; A375 GP, 10μΜ) was 25.8, the “cell viability (kinase inhibitor library screening)” value ([6]; A375 XP, 1μΜ) was 71.7 and the “cell viability (kinase inhibitor library screening)” value ([6]; A375 XP, 10μΜ) was 18.9. For the same compound, the “cell viability (kinase inhibitor library screening)” value ([7]; IGR37 Parental, 1μΜ, in %) was 52.0, the “cell viability (kinase inhibitor library screening)” value ([7]; IGR37 Parental, 10μΜ, in %) was 40.7 and the “cell viability (kinase inhibitor library screening)” value ([8]; IGR37 GP, 10μΜ, in %) was 79.6. For the same compound, the “cell viability (kinase inhibitor library screening)” value ([9]; IGR37 XP, 10μΜ, in %) was 30.0.
For Oc1ccc(-c2nc(-c3ccncc3)c(-c3ccc(F)cc3)[nH]2)cc1 [SB 202190], the “Cell viability in kinase inhibitor library screening, 501Mel Parental, 1μΜ” value ([1]; 501Mel Parental, 1μΜ, 72 h, in %) was 105.7, the “Cell viability in kinase inhibitor library screening, 501Mel Parental, 10μΜ” value ([1]; 501Mel Parental, 10μΜ, 72 h, in %) was 89.1 and the “Cell viability in kinase inhibitor library screening, 501Mel GP, 1μΜ” value ([2]; 501Mel GP, 1μΜ, 72 h, in %) was 108.3. For the same compound, the “Cell viability in kinase inhibitor library screening, 501Mel GP, 10μΜ” value ([2]; 501Mel GP, 10μΜ, 72 h, in %) was 90.0, the “Cell viability in kinase inhibitor library screening, 501Mel XP, 1μΜ” value ([3]; 501Mel XP, 1μΜ, 72 h, in %) was 98.4 and the “Cell viability in kinase inhibitor library screening, 501Mel XP, 10μΜ” value ([3]; 501Mel XP, 10μΜ, 72 h, in %) was 74.6. The “Cell viability in kinase inhibitor library screening, A375 Parental, 10μΜ” value ([4]; A375 Parental, 10μΜ, 72 h) was 64.6, the “Cell viability in kinase inhibitor library screening, A375 Parental, 1μΜ” value ([4]; A375 Parental, 1μΜ, 72 h) was 114.0 and the “Cell viability in kinase inhibitor library screening, A375 GP, 1μΜ” value ([5]; A375 GP, 1μΜ, 72 h) was 105.4. For the same compound, the “Cell viability in kinase inhibitor library screening, A375 GP, 10μΜ” value ([5]; A375 GP, 10μΜ, 72 h) was 98.4, the “Cell viability in kinase inhibitor library screening, A375 XP, 10μΜ” value ([6]; A375 XP, 10μΜ, 72 h) was 98.7 and the “Cell viability in kinase inhibitor library screening, IGR37 Parental, 1μΜ” value ([7]; IGR37 Parental, 1μΜ, 72 h, in %) was 118.8. The “Cell viability in kinase inhibitor library screening, IGR37 Parental, 10μΜ” value ([7]; IGR37 Parental, 10μΜ, 72 h, in %) was 83.2, the Cell viability in kinase inhibitor library screening, IGR37 GP, 10μΜ ([8]; IGR37 GP, 10μΜ, 72 h) was 85.3% and the “Cell viability in kinase inhibitor library screening, IGR37 GP, 1μΜ” value ([8]; IGR37 GP, 1μΜ, 72 h, in %) was 104.9. For the same compound, the Cell viability in kinase inhibitor library screening, IGR37 XP, 10μΜ ([9]; IGR37 XP, 10μΜ, 72 h) was 56.3% and the “Cell viability in kinase inhibitor library screening, IGR37 XP, 1μΜ” value ([9]; IGR37 XP, 1μΜ, 72 h, in %) was 103.1.
Cn1cc(C2=C(c3ccc(Cl)cc3Cl)C(=O)NC2=O)c2ccccc21 [SB 216763] was tested, and the viability at 1 µM ([1]; 72 h) was 101%, the viability at 10 µM ([1]; 72 h) was 82.6% and the viability at 1 µM ([2]; 72 h) was 106%. It also gave a viability at 10 µM ([2]; 72 h) of 74.1%, a viability at 1 µM ([3]; 72 h) of 96.9% and a viability at 10 µM ([3]; 72 h) of 73.3%. For the same compound, the viability at 1 µM [4] was 111%, the viability at 10 µM [4] was 68.1% and the viability at 1 µM [5] was 104%. For the same compound, the viability at 10 µM [5] was 67%, the viability at 1 µM [6] was 109% and the viability at 10 µM [6] was 79.9%. It also gave a viability at 1 µM [7] of 116%, a viability at 10 µM [7] of 99% and a viability at 1 µM [8] of 105%. It also gave a viability at 10 µM [8] of 88.4%, a viability at 1 µM [9] of 111% and a viability at 10 µM [9] of 65.4%.
